Data: patent US20120245213A1, “HUMAN TYPE I TASTE RECEPTOR SUBUNIT 3 MODULATORS AND METHODS OF USING SAME” (priority 2009, published 2012)
pIC50: −log10 of the molar value. Where two headings read alike, the source gives them in different places. Blank lines part the entries; values can stand above or below the compound they belong to.

Experiments:
human T1R2+T1R3 receptor = molecular target: T1, human T1R2+T1R3 receptor (Homo sapiens, UniProt Q7RTX0); experiment: Heterologous calcium mobilization assay, HEK293 cells expressing human sweet receptor; assay type: cell-based; conditions: for inhibition of the human sweet receptor: at up to 500 μM; for IC50: hT1R2+hT1R3 activated by 2.5 mM sucralose, mean (SD), at least 3 independent experiments, read-out: IC50 (μM (SD))
T1 construct: expressed in transfected cells; host or cells: HEK293E
T1 sequence (Q7RTX0 21-852): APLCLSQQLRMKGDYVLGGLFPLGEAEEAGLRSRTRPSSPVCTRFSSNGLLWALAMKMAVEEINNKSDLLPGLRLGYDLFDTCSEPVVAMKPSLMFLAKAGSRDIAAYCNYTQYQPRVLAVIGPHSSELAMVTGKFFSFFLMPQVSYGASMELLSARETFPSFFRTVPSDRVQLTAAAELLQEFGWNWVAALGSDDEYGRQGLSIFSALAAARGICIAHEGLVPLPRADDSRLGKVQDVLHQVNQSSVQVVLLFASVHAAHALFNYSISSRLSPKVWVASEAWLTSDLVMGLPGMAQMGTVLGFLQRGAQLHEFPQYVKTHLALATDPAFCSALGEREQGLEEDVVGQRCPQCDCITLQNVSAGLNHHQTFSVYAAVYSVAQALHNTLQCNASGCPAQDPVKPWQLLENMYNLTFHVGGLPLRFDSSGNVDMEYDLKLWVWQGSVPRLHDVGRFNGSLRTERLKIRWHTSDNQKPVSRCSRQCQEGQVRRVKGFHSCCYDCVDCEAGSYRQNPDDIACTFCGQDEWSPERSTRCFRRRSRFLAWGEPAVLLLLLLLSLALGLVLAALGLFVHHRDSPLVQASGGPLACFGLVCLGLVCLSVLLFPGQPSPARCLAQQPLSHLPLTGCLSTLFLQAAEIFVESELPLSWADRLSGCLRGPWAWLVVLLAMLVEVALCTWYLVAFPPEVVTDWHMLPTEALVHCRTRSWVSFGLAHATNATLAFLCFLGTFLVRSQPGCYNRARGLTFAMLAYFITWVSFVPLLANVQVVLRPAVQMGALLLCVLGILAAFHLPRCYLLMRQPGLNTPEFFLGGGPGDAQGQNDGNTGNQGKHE
T1 sequence (Q8TE23 20-839 partner): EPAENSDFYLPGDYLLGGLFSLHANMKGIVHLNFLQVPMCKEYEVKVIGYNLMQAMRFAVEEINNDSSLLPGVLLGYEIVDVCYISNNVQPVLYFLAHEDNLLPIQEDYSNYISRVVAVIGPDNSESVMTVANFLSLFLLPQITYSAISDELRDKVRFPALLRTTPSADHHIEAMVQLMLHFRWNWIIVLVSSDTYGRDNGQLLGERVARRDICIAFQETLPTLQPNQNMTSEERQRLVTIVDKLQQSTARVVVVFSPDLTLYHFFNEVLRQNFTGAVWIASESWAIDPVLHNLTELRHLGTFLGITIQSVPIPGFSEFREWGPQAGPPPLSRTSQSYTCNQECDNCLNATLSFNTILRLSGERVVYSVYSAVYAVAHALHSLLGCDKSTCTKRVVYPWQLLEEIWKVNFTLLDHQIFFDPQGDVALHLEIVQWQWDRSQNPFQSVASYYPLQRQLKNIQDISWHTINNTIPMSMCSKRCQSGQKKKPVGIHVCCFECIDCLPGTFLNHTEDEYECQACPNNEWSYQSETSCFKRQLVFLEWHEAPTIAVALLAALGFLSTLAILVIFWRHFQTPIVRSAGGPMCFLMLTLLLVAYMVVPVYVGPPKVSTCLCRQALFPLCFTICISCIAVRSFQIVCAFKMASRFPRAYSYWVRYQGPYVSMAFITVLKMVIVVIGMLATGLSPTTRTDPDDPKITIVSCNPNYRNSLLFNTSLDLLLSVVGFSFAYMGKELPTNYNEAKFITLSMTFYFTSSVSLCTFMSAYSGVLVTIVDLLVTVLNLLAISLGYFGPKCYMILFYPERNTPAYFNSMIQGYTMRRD
Description: T1R2+T1R3 subunits were transfected into HEK cells along with the promiscuous Gq-type protein G16-gust44. Activation of receptors by agonists was followed using the calcium-sensitive fluorescent dye fluo-4-AM in a 96-well format with the fluorescent microplate reader Flexstation II (Molecular Devices). Inhibitors were added concomitantly with the sweetener sucralose at 2.5 mM (saturating concentration). […] Fluorescence signal (F) is expressed in arbitrary units (AU). The down arrow indicates the injection of the sweetener-inhibitors mixture on the cells. […] Peak calcium signal is expressed as ΔF/F in %, normalized to control (sucralose alone). Data are from a representative experiment, means±SD, done in quadruplicate.
HEK293E cells were cultured at 37° C. in Optimem GlutaMAX culture medium (Invitrogen) supplemented with 4% dialyzed fetal bovine serum. Cells were transfected with the DNA constructs using lipofectamine-2000 according to the manufacturer's protocol (Invitrogen). Briefly, cells were seeded onto 96-well poly-D-lysine plates (Corning) at about 12,500 cells/well 18 hours prior to transfection; and co-transfected with plasmid DNAs encoding […] and G 16-gust44 (0.1 μg total DNA/well; 0.2 μl lipofectamine/well). After 24 hours, the transfected cells were washed once with the culture medium and incubated for another 24 hours. The cells were washed with HBSS supplemented with 20 mM Hepes (HBSS-H), loaded with 3 μM Fluo-4AM (Molecular Probe) in HBSS-H buffer, incubated for 1.5 hours at room temperature, and then washed with HBSS-H and maintained in HBSS-H at 25° C. […] Sweeteners were added 30 seconds after the start of the scan at 2× concentration in 50 μl of HBSS-H while monitoring fluorescence for an additional 200 seconds at 2 seconds intervals. Where tested, inhibitors were added along with sweeteners to the cells.
The data were expressed as the mean±S.E. of quadruplicate or sextuplicate of the F/F values, or were normalized as described. The bar graph and curving-fitting routines were carried out using Graph-Pad Prism 3.0 (GraphPad Software, Inc.).
To determine if phenoxy-herbicides and fibrates had inhibitory properties, a cell-based assay with HEK 293 cells expressing the human sweet receptor composed of hT1R3 and hT1R2 was used.
IC50s are means±SD from at least 3 independent experiments.

[1] = test system: sweet and umami (MSG) taste; experiment: Psychophysical self-experimentation on taste; assay type: in vivo, human; conditions: self-experimentation by one of the inventors
Source text: T1R3's role as a critical component of sweet and umami receptors in taste cells is well established (Zhao, supra; and Max, supra). T1R3, like gustducin, has also been implicated in glucose-sensing functions of gut endocrine cells and thereby in glucose homeostasis (Jang, supra).

[2] = HEK 293 cells, hT1R2+hT1R3, 2.5 mM sucralose, read-out: IC50, inhibition of human sweet receptor

SMILES: Cc1cc(Cl)ccc1OC(C)C(=O)O (centres unmarked) [MCPP, 2-(4-chloro-2-methylphenoxy) propanoic acid]
pIC50 (human T1R2+T1R3 receptor): 4.92 to 5.30

SMILES: CC(C)(Oc1ccc(CCNC(=O)c2ccc(Cl)cc2)cc1)C(=O)O [Bezafibric acid, 2-[4-(2-{[(4-chlorophenyl)carbonyl]amino}ethyl)phenoxy]-2-methylpropanoic acid, reference compound]
pIC50 (human T1R2+T1R3 receptor; [2]): 4.00 to 4.52

SMILES: O=C(O)Cc1ccccc1 [PAA, phenylacetic acid]
pIC50 (human T1R2+T1R3 receptor): ≤ 3.85

SMILES: Cc1ccc(C)c(OCCCC(C)(C)C(=O)O)c1 [Gemfibrozil, 5-(2,5-dimethylphenoxy)-2,2-dimethylpentanoic acid, reference compound]
pIC50 (human T1R2+T1R3 receptor; [2]): 4.00 to 4.52

SMILES: O=C(O)Cc1c[nH]c2ccccc12 [IAA, 1H-indol-3-ylacetic acid]
inhibition of the human sweet receptor (human T1R2+T1R3 receptor): did not inhibit | IC50 (human T1R2+T1R3 receptor): > 1000 µM

SMILES: CC(Oc1cc(Cl)c(Cl)cc1Cl)C(=O)O (centres unmarked) [2,4,5TPP, 2-(2,4,5-trichlorophenoxy) propanoic acid]
pIC50 (human T1R2+T1R3 receptor): 4.92 to 5.30

SMILES: O=C(O)COc1ccc(Cl)cc1 [4-CPA, (4-chlorophenoxy)acetic acid]
pIC50 (human T1R2+T1R3 receptor): ≤ 3.85

SMILES: CC(C)(Oc1ccc(Cl)cc1)C(=O)O [Clofibric acid, 2-(4-chlorophenoxy)-2-methylpropanoic acid]
inhibition of sweet taste in vivo [1]: potently inhibited | inhibition of umami (MSG) taste in vivo [1]: potently inhibited

Other lines, results leading:

pIC50 (human T1R2+T1R3 receptor; [2]): ≤ 3.85
SMILES: O=C(O)Cc1cccc2ccccc12 [NAA, naphthalen-1-ylacetic acid]

inhibition of the human sweet receptor (human T1R2+T1R3 receptor): did not inhibit | IC50 (human T1R2+T1R3 receptor): > 1000 µM
SMILES: O=C(O)CCc1c[nH]c2ccccc12 [IPA, 3-(1H-indol-3-yl)propanoic acid]

inhibition of the human sweet receptor (human T1R2+T1R3 receptor): did not inhibit
SMILES: O=C(O)CCCc1c[nH]c2ccccc12 [IBA, 4-(1H-indol-3-yl)butanoic acid]
